According to article PMC3216923 (2011):

Key:
Experiment in all cases: isothermal titration calorimetry
[1] = test system: TelM (DNA, single strand) TTAGGGTTAGAGTTAGGGTTAGGG; conditions: 100 mM NaCl; 10 mM Na phosphate, pH 6.5, 25°C; site 1 of 2
[2] = test system: TelQ (DNA, G4) TTAGGGTTAGGGTTAGGGTTAGGG; conditions: 10 mM Na phosphate, pH 6.5, 25°C
[3] = test system: dsDNA (DNA, duplex) TTAGGGTTAGGGTTAGGGTTAGGG/CCCTAACCCTAACCCTAACCCTAA; conditions: 100 mM NaCl or 100 mM KCl (not specified), Na+ 10 mM (Na phosphate), pH 6.5, 25°C

**Q.** Which results are given for `CC(=N)NCCNc1c2c(c(NCCNC(C)=N)c3sccc13)C(=O)c1ccccc1C2=O`?
**A.** K ass [1]: 200±70 × 10^6 M^-1; K ass ([2]; 100 mM KCl, text prints 1.0±0.15 × 10^7): 10.6±1.7 × 10^6 M^-1; K ass ([2]; 100 mM NaCl): 0.9±0.1 × 10^6 M^-1; K ass [3]: 2.2±0.1 × 10^6 M^-1
